Biological target: T1, Human M4 (Homo sapiens, UniProt P08173)
T1 construct: expressed in transfected cells; host or cells: CHO-K1 (ATCC), stably co-expressing chimeric G protein Gqi5
T1 sequence (P08173 1-479): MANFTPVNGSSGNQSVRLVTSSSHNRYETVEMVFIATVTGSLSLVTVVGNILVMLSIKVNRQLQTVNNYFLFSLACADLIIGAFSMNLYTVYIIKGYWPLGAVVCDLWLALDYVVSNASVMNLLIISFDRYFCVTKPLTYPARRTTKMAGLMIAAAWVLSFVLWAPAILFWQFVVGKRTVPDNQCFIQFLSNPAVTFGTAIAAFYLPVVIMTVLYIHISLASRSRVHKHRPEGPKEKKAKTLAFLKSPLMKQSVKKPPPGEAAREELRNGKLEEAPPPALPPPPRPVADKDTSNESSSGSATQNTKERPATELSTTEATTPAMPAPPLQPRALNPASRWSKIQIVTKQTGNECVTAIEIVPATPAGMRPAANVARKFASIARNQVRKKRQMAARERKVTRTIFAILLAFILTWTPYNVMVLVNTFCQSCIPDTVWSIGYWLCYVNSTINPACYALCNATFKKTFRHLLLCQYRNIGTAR
Test: mAChR M4 cell-based functional assay (calcium flux, antagonist mode)
Conditions: for remaining activity at 30 µM: % ACh maximum at 30 μM, read-out: Emin; for IC50: M4/Gqi5/CHO-K1 cells, concentration-dependent decrease of the EC80 acetylcholine response
Method: Human or rat M4 cDNA, along with the chimeric G protein Gqi5, were transfected into Chinese hamster ovary (CHO-K1) cells purchased from the American Type Culture Collection using Lipofectamine2000. M4/Gqi5/CHO cells were grown in Ham's F-12 medium containing 10% heat-inactivated fetal bovine serum (FBS), 20 mM HEPES, 500 μg/mL G418 sulfate, and 200 μg/mL Hygromycin B.
For high throughput measurement of agonist-evoked increases in intracellular calcium, CHO-K1 cells stably expressing muscarinic receptors were plated in growth medium lacking G418 and hygromycin at 15,000 cells/20 μL/well in Greiner 384-well black-walled, tissue culture (TC)-treated, clear-bottom plates (VWR). Cells were incubated overnight at 37° C. and 5% CO2. The next day, cells were washed using an ELX 405 (BioTek) with assay buffer; the final volume was then aspirated to 20 μL, Next, 20 μL of a 2.3 μM stock of Fluo-4/acetoxymethyl ester (Invitrogen, Carlsbad, Calif.), prepared as a 2.3 μM stock in DMSO, mixed in a 1:1 ratio with 10% (w/v) Pluronic F-127 and diluted in assay buffer, was added to the wells and the cell plates were incubated for 50 min at 37° C. and 5% CO2. Dye was removed by washing with the ELX 405 and the final volume was aspirated to […]. Compound master plates were formatted in a 10 point concentration-response curve (CRC) format (1:3 dilutions) in 100% DMSO with a starting concentration of 10 or 1 mM using a BRAVO liquid handler (Agilent). Test compound CRCs were then transferred to daughter plates (240 nL) using the Echo acoustic plate reformatter (Labcyte, Sunnyvale, Calif.) and then diluted into assay buffer (40 μL) to a 2× stock using a Thermo Fisher Combi (Thermo Fisher Scientific, Waltham, Mass.).
Calcium flux was measured using the Functional Drug Screening System (FDSS) 6000 or 7000 (Hamamatsu Corporation, Tokyo, Japan) as an increase in the fluorescent static ratio. Compounds were applied to cells (20 μL, 2×) using the automated system of the FDSS at 2 seconds into the protocol and the data were collected at 1 Hz. At 143 s, 10 μL of an EC20 concentration of the muscarinic receptor agonist acetylcholine was added (5×), followed by the addition of 12 μL of an EC80 concentration of acetylcholine at the 268 s time point (5×). Agonist activity was analyzed as a concentration-dependent increase in calcium mobilization upon compound addition. Positive allosteric modulator activity was analyzed as a concentration-dependent increase in the EC20 acetylcholine response. Antagonist activity was analyzed as a concentration-dependent decrease in the EC80 acetylcholine response; for the purposes of the tables herein, an […] (inhibitory concentration 50) was calculated as a concentration-dependent decrease of the response elicited by an EC80 concentration of acetylcholine. Concentration-response curves were generated using a four-parameter logistical equation in XLFit curve fitting software (IDBS, Bridgewater, N.J.) for Excel (Microsoft, Redmond, Wash.) or Prism (GraphPad Software, Inc., San Diego, Calif.) or the Dotmatics software platform (Dotmatics, Bishop's Stortford, UK).
Compounds were synthesized as described above. Activity (IC50 and Emin) was determined in the mAChR M4 cell-based functional assay as described above and the data are shown in Table 4.

remaining activity at 30 µM [%] | IC50 [µM] | SMILES
15.9 | > 10 | Cc1nn(C)cc1-c1ccc(NC2CC3(CCN(CC4CCOCC4)CC3)C2)nn1 [Compound 5, N-[6-(1,3-dimethylpyrazol-4-yl)pyridazin-3-yl]-7-(tetrahydropyran-4-ylmethyl)-7-azaspiro[3.5]nonan-2-amine]
5.52 | 1.91 | Fc1ccc(Cl)c(-c2ccc(NCC3CC4(CCN(Cc5ccccn5)CC4)C3)nn2)c1 [Compound 47, 6-(2-chloro-5-fluoro-phenyl)-N-[[7-(2-pyridylmethyl)-7-azaspiro[3.5]nonan-2-yl]methyl]pyridazin-3-amine]
3.01 | 0.33 | CC(C)(C)CCN1CCC2(CC1)CC(Oc1ccc(-c3cc(F)ccc3Cl)nn1)C2 [Compound 15, 2-[6-(2-Chloro-5-fluoro-phenyl)pyridazin-3-yl]oxy-7-(3,3-dimethylbutyl)-7-azaspiro[3.5]nonane]
4.6 | 2.02 | Fc1ccc(Cl)c(-c2ccc(NCC3CC4(CCN(Cc5ccc6c(c5)OCO6)CC4)C3)nn2)c1 [Compound 49, N-[[7-(1,3-benzodioxol-5-ylmethyl)-7-azaspiro[3.5]nonan-2-yl]methyl]-6-(2-chloro-5-fluoro-phenyl)pyridazin-3-amine]
3.96 | 0.25 | Fc1ccc(Cl)c(-c2ccc(OCC3CC4(CCN(CC5CC6C=CC5C6)CC4)C3)nn2)c1 (centres unmarked) [Compound 61, 7-(5-bicyclo[2.2.1]hept-2-enylmethyl)-2-[[6-(2-chloro-5-fluoro-phenyl)pyridazin-3-yl]oxymethyl]-7-azaspiro[3.5]nonane]
4.48 | 1.74 | COc1cccc(CN2CCC3(CC2)CC(CNc2ccc(-c4cc(F)ccc4Cl)nn2)C3)n1 [Compound 48, 6-(2-chloro-5-fluoro-phenyl)-N-[[7-[(6-methoxy-2-pyridyl)methyl]-7-azaspiro[3.5]nonan-2-yl]methyl]pyridazin-3-amine]
30.8 | > 10 | Cc1nn(C)cc1-c1ccc(NCC2CC3(CCN(CC4CCOCC4)CC3)C2)nn1 [Compound 52, 6-(1,3-dimethylpyrazol-4-yl)-N-[[7-(tetrahydropyran-4-ylmethyl)-7-azaspiro[3.5]nonan-2-yl]methyl]pyridazin-3-amine]
7.8 | 2.13 | Fc1ccc(Cl)c(-c2ccc(OCC3CC4(CCN(CC5CCCOC5)CC4)C3)nn2)c1 (centres unmarked) [Compound 63, 2-[[6-(2-chloro-5-fluoro-phenyl)pyridazin-3-yl]oxymethyl]-7-(tetrahydropyran-3-ylmethyl)-7-azaspiro[3.5]nonane]
4.05 | 1.02 | Cc1nn(C)cc1-c1ccc(NC2CC3(CCN(CC(C)C(C)(C)C)CC3)C2)nn1 (centres unmarked) [Compound 4, N-[6-(1,3-dimethylpyrazol-4-yl)pyridazin-3-yl]-7-(2,3,3-trjmethylbutyl)-7-azaspiro[3.5]nonan-2-amine]
19.4 | 3.94 | Cc1cccnc1CN1CCC2(CC1)CC(CNc1ccc(-c3cn(C)nc3C)nn1)C2 [Compound 56, 6-(1,3-dimethylpyrazol-4-yl)-N-[[7-[(3-methyl-2-pyridyl)methyl]-7-azaspiro[3.5]nonan-2-yl]methyl]pyridazin-3-amine]
5.55 | 1.77 | Fc1ccc(Cl)c(-c2ccc(OC3CC4(CCN(CC5CCCOC5)CC4)C3)nn2)c1 (centres unmarked) [Compound 20, 2-[6-(2-chloro-5-fluoro-phenyl)pyridazin-3-yl]oxy-7-(tetrahydropyran-3-ylmethyl)-7-azaspiro[3.5]nonane]
2.76 | 0.11 | Cc1nn(C)cc1-c1ccc(OC2CC3(CCN(CC4CC5C=CC4C5)CC3)C2)nn1 (centres unmarked) [Compound 24, 7-(5-bicyclo[2,2.1]hept-2-enylmethyl)-2-[6-(1,3-dimethylpyrazol-4-yl)pyridazin-3-yl]oxy-7-azaspiro[3.5]nonane]
4.43 | 0.63 | Cc1nn(C)cc1-c1ccc(OC2CC3(CCN(CC4CCCCC4)CC3)C2)nn1 [Compound 26, 7-(cyclohexylmethyl)-2-[6-(1,3-dimethylpyrazol-4-yl)pyridazin-3-yl]oxy-7-azaspiro[3.5]nonane]
4.76 | 1.21 | Cc1cnn(C)c1-c1ccc(OC2CC3(CCN(CC4CCSCC4)CC3)C2)nn1 [Compound 36, 2-[6-(2,4-dimethylpyrazol-3-yl)pyridazin-3-yl]oxy-7-(tetrahydrothiopyran-4-ylmethyl)-7-azaspiro[3.5]nonane]
34.3 | > 10 | Cc1nn(C)cc1-c1ccc(NCC2CC3(CCN(Cc4ccccn4)CC3)C2)nn1 [Compound 55, 6-(1,3-dimethylpyrazol-4-yl)-N-[[7-(2-pyridylmethyl)-7-azaspiro[3.5]nonan-2-yl]methyl]pyridazin-3-amine]
3.47 | 1.14 | Fc1ccc(Cl)c(-c2ccc(OC3CC4(CCN(CC5CCOCC5)CC4)C3)nn2)c1 [Compound 19, 2-[6-(2-chloro-5-fluoro-phenyl)pyridazin-3-yl]oxy-7-(tetrahydropyran-4-ylmethyl)-7-azaspiro[3.5]nonane]
17.8 | 6.37 | Cc1cnn(C)c1-c1ccc(OC2CC3(CCN(CC4CCOCC4)CC3)C2)nn1 [Compound 35, 2-[6-(2,4-dimethylpyrazol-3-yl)pyridazin-3-yl]oxy-7-(tetrahydropyran-4-ylmethyl)-7-azaspiro[3.5]nonane]
14.8 | 7.72 | Cc1cccnc1CN1CCC2(CC1)CC(Oc1ccc(-c3c(C)cnn3C)nn1)C2 [Compound 38, 2-[6-(2,4-dimethylpyrazol-3-yl)pyridazin-3-yl]oxy-7-[(3-methyl-2-pyridyl)methyl]-7-azaspiro[3.5]nonane]
6.28 | 2.66 | Fc1ccc(Cl)c(-c2ccc(OCC3CC4(CCN(Cc5ccccc5)CC4)C3)nn2)c1 [Compound 65, 7-benzyl-2-[[6-(2-chIoro-5-fluoro-phenyl)pyridazin-3-yl]oxymethyl]-7-azaspiro[3.5]nonane]
3.95 | 0.21 | Cc1cnn(C)c1-c1ccc(NC2CC3(CCN(CC4CCSCC4)CC3)C2)nn1 [Compound 11, N-[6-(2,4-dimethylpyrazol-3-yl)pyridazin-3-yl]-7-(tetrahydrothiopyran-4-ylmethyl)-7-azaspiro[3.5]nonan-2-amine]
3.64 | 0.3 | Cc1nn(C)cc1-c1ccc(NCC2CC3(CCN(CC45CC6CC(CC(C6)C4)C5)CC3)C2)nn1 [Compound 57, N-[[7-(1-adamantylmethyl)-7-azaspiro[3.5]nonan-2-yl]methyl]-6-(1,3-dimethylpyrazol-4-yl)pyridazin-3-amine]
2.85 | 0.2 | Cc1nn(C)cc1-c1ccc(OC2CC3(CCN(CCC(C)(C)C)CC3)C2)nn1 [Compound 13, 7-(3,3-Dimethylbutyl)-2-[6-(1,3-dimethylpyrazol-4-yl)pyridazin-3-yl]oxy-7-azaspiro[3.5]nonane]

— patent US11149022B2, “Antagonists of the muscarinic acetylcholine receptor M4” (Vanderbilt University, priority 2017, dated 2021)
